The record followed here is patent US20240335444A1, “MODULATORS OF BCL6 PROTEOLYSIS AND ASSOCIATED METHODS OF USE” (Arvinas Operations, Inc., priority 2023, published 2024).

The test system of the test is OCI-Ly1. The test can be described thus: Tumor growth of DLBCL cell line derived xenograft model OCI-Ly1. The format is in vivo, mice. The note with it: BCL6 sensitive tumor xenograft model (OCI-Ly1), 10 mg/kg BID. How it is done: Mice bearing subcutaneous tumors were orally (po) administered vehicle or Compound A at 1, 3, 10, or 30 mg/kg daily for 22 days (qd×22). Dosing began with tumors at an average of 140 mm^3. […] Statistical analyses were performed using 2-way ANOVA: p<0.0001 (****). Error bars represent standard error of the mean (±SEM).
Mice bearing subcutaneous tumors were orally (po) administered vehicle or Compound A at 1, 3, or 10 mg/kg bi-daily for 23 days (bid×23). Dosing began with tumors at an average of 170 mm^3. […] FIG. 7C depicts tumor lysate BCL6 protein levels 16-hours post-last dose analyzed by western blotting. Individual tumor BCL6 levels are shown in a scatter plot, mean is represented by the bar, determined by densitometry, normalized to GAPDH loading controls, and shown as a percentage of vehicle. Percent BCL6 degradation (%) relative to vehicle is shown above each arm. Statistical analyses were performed using 2-way ANOVA: p<0.0001 (****). Error bars represent standard error of the mean (±SEM).

For the molecule `CNC(=O)COc1cc2cc(Nc3nc(N4CCC(O[C@H]5C[C@H](N6CCN(c7ccc8c(c7)CN([C@H]7CCC(=O)NC7=O)C8=O)C(C)(C)C6)C5)CC4)ncc3Cl)ccc2n(C(C)C)c1=O` [Compound 211, 2-({6-[(5-chloro-2-{4-[(1r,3r)-3-(4-{2-[(3S)-2,6-dioxopiperidin-3-yl]-1-oxo-2,3-dihydro-1H-isoindol-5-yl}-3,3-dimethylpiperazin-1-yl)cyclobutoxy]piperidin-1-yl}pyrimidin-4-yl)amino]-2-oxo-1-(proapn-2-yl)-1,2-dihydroquinolin-3-yl}oxy)-N-methylacetamide], the “Ly-1 TGI @ 10 mg/kg (BID)” value is recorded as 87%. The value for `CNC(=O)COc1cc2cc(Nc3nc(N4CCC(O[C@H]5C[C@H](N6CCC(c7ccc8c(c7Cl)CN(C7CCC(=O)NC7=O)C8=O)CC6)C5)CC4)ncc3Cl)ccc2n(C(C)C)c1=O` (some centres unmarked) [Compound 163, 2-({6-[(5-chloro-2-{4-[(1r,3r)-3-{4-[4-chloro-2-(2,6-dioxopiperidin-3-yl)-1-oxo-2,3-dihydro-1H-isoindol-5-yl]piperidin-1-yl}cyclobutoxy]piperidin-1-yl}pyrimidin-4-yl)amino]-2-oxo-1-(propan-2-yl)-1,2-dihydroquinolin-3-yl}oxy)-N-methylacetamide] was 95%; that for `CNC(=O)COc1cc2cc(Nc3nc(N4CCC(O[C@H]5C[C@H](N6CCC(c7ccc8c(c7F)CN(C7CCC(=O)NC7=O)C8=O)CC6)C5)CC4)ncc3Cl)ccc2n(C(C)C)c1=O` (some centres unmarked) [Compound 81, 2-({6-[(5-chloro-2-{4-[(1r,3r)-3-{4-[2-(2,6-dioxopiperidin-3-yl)-4-fluoro-1-oxo-2,3-dihydro-1H-isoindol-5-yl]piperidin-1-yl}cyclobutoxy]piperidin-1-yl}pyrimidin-4-yl)amino]-2-oxo-1-(propan-2-yl)-1,2-dihydroquinolin-3-yl}oxy)-N-methylacetamide] was 100%. The result for `CNC(=O)COc1cc2cc(Nc3nc(N4CCC(O[C@H]5C[C@H](N6CCC(c7cc(C)c8c(c7F)CN(C7CCC(=O)NC7=O)C8=O)CC6)C5)CC4)ncc3Cl)ccc2n(C(C)C)c1=O` (some centres unmarked) [Compound 208, 2-({6-[(5-chloro-2-{4-[(1r,3r)-3-{4-[2-(2,6-dioxopiperidin-3-yl)-4-fluoro-7-methyl-1-oxo-2,3-dihydro-1H-isoindol-5-yl]piperidin-1-yl}cyclobutoxy]piperidin-1-yl}pyrimidin-4-yl)amino]-2-oxo-1-(propan-2-yl)-1,2-dihydroquinolin-3-yl}oxy)-N-methylacetamide] reads 77%; that for `CNC(=O)COc1cc2cc(Nc3nc(N4CCC(O[C@H]5C[C@H](N6CC[C@@H](c7ccc8c(c7F)CN([C@H]7CCC(=O)NC7=O)C8=O)C(C)(C)C6)C5)CC4)ncc3Cl)ccc2n(C(C)C)c1=O` [Compound 209, 2-({6-[(5-chloro-2-{4-[(1r,3r)-3-[(4R)-4-{2-[(3S)-2,6-dioxopiperidin-3-yl]-4-fluoro-1-oxo-2,3-dihydro-1H-isoindol-5-yl}-3,3-dimethylpiperidin-1-yl]cyclobutoxy]piperiidn-1-yl}pyrimidin-4-yl)amino]-2-oxo-1-(propan-2-yl)-1,2-dihydroquinolin-3-yl}oxy)-N-methylacetamide], 104%.
